Assays:
[1] = tested on: hospital S. epidermidis (MRSE); test: MIC, hospital S. epidermidis; assay type: cell-based, Staphylococcus epidermidis; details: for times more effective than the reference chemotherapeutic (ciprofloxacin): S. epidermidis 424, 471, 511, 515 and 431–433 isolates
Experimental: (§1) The antimicrobial activity of the compounds was tested on Gram-positive bacteria (Staphylococcus aureus NCTC 4163, Staphylococcus aureus ATCC 25923, Staphylococcus aureus ATCC 6538, Staphylococcus aureus ATCC 29213, Staphylococcus epidermidis ATCC 12228, Staphylococcus epidermidis ATCC 35984), Gram-negative rods (Escherichia coli ATCC 10538, Escherichia coli ATCC 25922, Pseudomonas aeruginosa ATCC 15442, Pseudomonas aeruginosa ATCC 27863) and yeasts (Candida albicans ATCC 10231, Candida albicans ATCC 90028, Candida parapsilosis ATCC 22019). Hospital methicillin-resistant strains of Staphylococcus aureus and Staphylococcus epidermidis were obtained from the collection of the Department of Pharmaceutical Microbiology, Medical University of Warsaw, Poland.
(§2) Antifungal activities were assessed using Mueller–Hinton agar + 2% glucose and 0.5 µg/mL methylene blue dye medium. Sterile filter paper discs (9 mm diameter, Whatman Number 3 chromatography paper) were dripped with tested compound solutions (in dimethylsulfoxide, DMSO) to load 400 μg of a given compound per disc. Dry discs were placed on the surface of appropriate agar medium. The results (diameter of the growth inhibition zone) were read after 18 h of incubation at 35 °C. Minimal inhibitory concentration (MIC) was tested by the twofold serial microdilution method (in 96-well microtiter plates) using Mueller–Hinton broth medium (Beckton Dickinson) for bacteria or RPMI-1640 medium for Candida species, according to CLSI guidelines. The stock solution of tested agent was prepared in DMSO and diluted in sterile water. […] The final inoculum of all studied microorganisms was 10^5 CFU/ mL^−1 (colony forming units per ml). Minimal inhibitory concentrations (the lowest concentration of a tested agent that prevents visible growth of a microorganism) were read after 18 h (bacteria) or 24 h (yeasts) of incubation at 35 °C.

SW620 cells = test: Annexin V-FITC/PI flow cytometry, SW620; assay type: cell-based, human; details: SW620, IC50 dose, 72 h
Experimental: The cells were cultured and harvested under the conditions described in the cell culture section. […] The effect of these compounds on the process of early and late apoptosis and necrosis was determined, as described previously, by dual staining with annexin V-FITC and propidium iodide according to manufacturer’s protocol (Becton Dickinson). The cells that were annexin V-FITC positive and PI-negative were identified as early apoptotic and annexin V-FITC and PI-positive as late apoptotic or necrotic.

[2] = tested on: SW480 (human primary colon cancer); test: MTT cytotoxicity assay, SW480; assay type: cell-based; details: SW480, 72 h
Experimental: The human primary (SW480), metastatic (SW620) colon cancer, metastatic prostate cancer (PC3) and human immortal keratinocyte (HaCaT) cell lines were purchased from the American Type Culture Collection (ATCC, Rockville, USA). The cells were cultured in medium according to protocols (MEM for SW480 and SW620, RPMI 1640 for PC3 and DMEM for HaCaT cells) supplemented with 10% fetal bovine serum (FBS), penicillin (100 U/mL) and streptomycin (100 μg/mL) and cultured in 37 °C/ 5% CO2 humidified incubator. The cells were cultured until appropriate confluence was achieved (80–90%). Next, they were harvested by treatment with 0.25% trypsin (Gibco Life Technologies, USA) and used for studies.
Cells without studied compounds in medium were used as a control.
The cell viability was assessed by determination of MTT salt (3-(4,5-dimethylthiazol-2-yl)-2,5-diphenyltetrazolium bromide) conversion by mitochondrial dehydrogenase. MTT assay was performed as previously described. Experiments were repeated three times. Cell viability was presented as a percentage of MTT reduction in the treated cells versus the control cells. Number of viable cells cultured without studied compounds was assumed to be 100%. Decreased relative MTT level means decreased cell viability. Thiourea complexes with the highest cytotoxic potential assessed by MTT determination (with the lowest IC50) were chosen for subsequent assessments of cytotoxicity mechanisms.

S. aureus 496 = test: MIC, hospital MRSA strain; assay type: cell-based, Staphylococcus aureus; details: hospital MRSA S. aureus 496
Experimental: as §1, §2

S. aureus 572 = test: MIC, hospital MRSA strain; assay type: cell-based, Staphylococcus aureus; details: for MIC: hospital MRSA S. aureus 572; for times more active than ciprofloxacin: S. aureus 572
Experimental: as §1, §2

S. aureus 497 = test: MIC, hospital MRSA strain; assay type: cell-based, Staphylococcus aureus; details: hospital MRSA S. aureus 497
Experimental: as §1, §2

S. aureus 481 = test: MIC, hospital MRSA strain; assay type: cell-based, Staphylococcus aureus; details: for MIC: hospital MRSA S. aureus 481; for times more active than ciprofloxacin: S. aureus 481
Experimental: as §1, §2

S. aureus 567 = test: MIC, hospital MRSA strain; assay type: cell-based, Staphylococcus aureus; details: hospital MRSA S. aureus 567
Experimental: as §1, §2

S. aureus 537 = test: MIC, hospital MRSA strain; assay type: cell-based, Staphylococcus aureus; details: hospital MRSA S. aureus 537
Experimental: as §1, §2

S. aureus 568 = test: MIC, hospital MRSA strain; assay type: cell-based, Staphylococcus aureus; details: hospital MRSA S. aureus 568
Experimental: as §1, §2

S. aureus 585 = test: MIC, hospital MRSA strain; assay type: cell-based, Staphylococcus aureus; details: hospital MRSA S. aureus 585
Experimental: as §1, §2

S. aureus 522 = test: MIC, hospital MRSA strain; assay type: cell-based, Staphylococcus aureus; details: hospital MRSA S. aureus 522
Experimental: as §1, §2

S. aureus 514 = test: MIC, hospital MRSA strain; assay type: cell-based, Staphylococcus aureus; details: hospital MRSA S. aureus 514
Experimental: as §1, §2

S. aureus 498 = test: MIC, hospital MRSA strain; assay type: cell-based, Staphylococcus aureus; details: hospital MRSA S. aureus 498
Experimental: as §1, §2

S. aureus 573 = test: MIC, hospital MRSA strain; assay type: cell-based, Staphylococcus aureus; details: hospital MRSA S. aureus 573
Experimental: as §1, §2

S. aureus 586 = test: MIC, hospital MRSA strain; assay type: cell-based, Staphylococcus aureus; details: hospital MRSA S. aureus 586
Experimental: as §1, §2

S. aureus 495 = test: MIC, hospital MRSA strain; assay type: cell-based, Staphylococcus aureus; details: hospital MRSA S. aureus 495
Experimental: as §1, §2

Row | SMILES | times more effective than the reference chemotherapeutic (ciprofloxacin) [1] | early apoptosis, % of cells (SW620 cells) | IC50 [2] [µM] | MIC (S. aureus 496) [µg/mL] | MIC (S. aureus 572) [µg/mL] | MIC (S. aureus 497) [µg/mL] | MIC (S. aureus 481) [µg/mL] | MIC (S. aureus 567) [µg/mL] | MIC (S. aureus 537) [µg/mL] | MIC (S. aureus 568) [µg/mL] | MIC (S. aureus 585) [µg/mL] | MIC (S. aureus 522) [µg/mL] | MIC (S. aureus 514) [µg/mL] | MIC (S. aureus 498) [µg/mL] | MIC (S. aureus 573) [µg/mL] | MIC (S. aureus 586) [µg/mL] | MIC (S. aureus 495) [µg/mL] | MIC ([1]; most of hospital S. epidermidis species) [µg/mL] | times more active than ciprofloxacin (S. aureus 572) [times] | times more active than ciprofloxacin (S. aureus 481) [times]
1 | O=[N+]([O-])c1cc([N+]2=C(Nc3ccccc3Br)[S][Cu-2]23[S]C(Nc2ccccc2Br)=[N+]3c2ccc(Cl)c([N+](=O)[O-])c2)ccc1Cl [Compound 1, Copper (II) complex with 1-(2-bromophenyl)-3-(4-chloro-3-nitrophenyl)thiourea] | 2–16 times | 38.4% ± 2.4% | 4.7 ± 0.3 | 8 | 8 | 8 | 8 | 8 | 8 | 8 | 8 | 8 | 8 | 8 | 8 | 4 | 8 |  |  | 
2 | O=[N+]([O-])c1cc([N+]2=C(Nc3cccc(Br)c3)[S][Cu-2]23[S]C(Nc2cccc(Br)c2)=[N+]3c2ccc(Cl)c([N+](=O)[O-])c2)ccc1Cl [Compound 2, Copper (II) complex with 1-(3-bromophenyl)-3-(4-chloro-3-nitrophenyl)thiourea] | 2–16 times |  | 24.3 ± 2.6 | 8 | 8 | 8 | 8 | 8 | 8 | 8 | 8 | 8 | 8 | 8 | 8 | 8 | 8 |  |  | 
3 | O=[N+]([O-])c1cc([N+]2=C(Nc3ccc(Br)cc3)[S][Cu-2]23[S]C(Nc2ccc(Br)cc2)=[N+]3c2ccc(Cl)c([N+](=O)[O-])c2)ccc1Cl [Compound 3, Copper (II) complex with 1-(4-bromophenyl)-3-(4-chloro-3-nitrophenyl)thiourea] |  | approximately 20% | 11.9 ± 2.1 | 4 | 4 | 4 | 4 | 4 | 4 | 4 | 4 | 4 | 4 | 4 | 4 | 4 | 4 | 4 to 8 | 64 | 64
4 | O=[N+]([O-])c1cc([N+]2=C(Nc3ccc(F)c(Cl)c3)[S][Cu-2]23[S]C(Nc2ccc(F)c(Cl)c2)=[N+]3c2ccc(Cl)c([N+](=O)[O-])c2)ccc1Cl [Compound 4, Copper (II) complex with 1-(3-chloro-4-fluorophenyl)-3-(4-chloro-3-nitrophenyl)thiourea] | 2–16 times |  | 19.2 ± 1.1 | 8 | 4 | 8 | 4 | 4 | 4 | 4 | 4 | 4 | 4 | 4 | 4 | 4 | 4 |  | 64 | 64
5 | O=[N+]([O-])c1cc([N+]2=C(Nc3ccc(Cl)c(Cl)c3)[S][Cu-2]23[S]C(Nc2ccc(Cl)c(Cl)c2)=[N+]3c2ccc(Cl)c([N+](=O)[O-])c2)ccc1Cl [Compound 5, Copper (II) complex with 1-(4-chloro-3-nitrophenyl)-3-(3,4-dichlorophenyl)thiourea] |  |  | 20.6 ± 2.1 | 32 | 16 | 16 | 16 | 16 | 16 | 16 | 16 | 16 | 32 | 16 | 16 | 16 | 16 |  |  | 
6 | O=[N+]([O-])c1cc(NC2=[N+](c3ccc(Cl)c([N+](=O)[O-])c3)[Cu-2]3([S]2)[S]C(Nc2ccc(Cl)c([N+](=O)[O-])c2)=[N+]3c2ccc(Cl)c([N+](=O)[O-])c2)ccc1Cl [Compound 6, Copper (II) complex with 1,3-bis(4-chloro-3-nitrophenyl)thiourea] |  |  | 26.8 ± 2.3 | 32 | 32 | 32 | 32 | 32 | 32 | 32 | 32 | 32 | 32 | 32 | 32 | 32 | 32 |  |  | 
7 | O=[N+]([O-])c1cc([N+]2=C(Nc3ccccc3F)[S][Cu-2]23[S]C(Nc2ccccc2F)=[N+]3c2ccc(Cl)c([N+](=O)[O-])c2)ccc1Cl [Compound 7, Copper (II) complex with 1-(2-fluorophenyl)-3-(4-chloro-3-nitrophenyl)thiourea] | 2–16 times | 35.4% ± 2.8% | 15.5 ± 2.6 | 8 | 4 | 8 | 4 | 4 | 8 | 8 | 8 | 8 | 8 | 4 | 8 | 8 | 8 |  | 64 | 64
